35 molecules from paper PMC7782162, “Inhibition of the β-carbonic anhydrase from the protozoan pathogen Trichomonas vaginalis with sulphonamides” (Journal of Enzyme Inhibition and Medicinal Chemistry, 2020) can be followed below.

Where only a bound is given, the exact number is not on record here.

The target in one assay is T1, TvaCA1 (Trichomonas vaginalis, UniProt A2ENQ8).
T1 construct: gene TVAG_005270; recombinant from E. coli BL21 Star (DE3), Ni2+-NTA purified; beta-CA homodimer with two active sites
T1 sequence (A2ENQ8 1-182): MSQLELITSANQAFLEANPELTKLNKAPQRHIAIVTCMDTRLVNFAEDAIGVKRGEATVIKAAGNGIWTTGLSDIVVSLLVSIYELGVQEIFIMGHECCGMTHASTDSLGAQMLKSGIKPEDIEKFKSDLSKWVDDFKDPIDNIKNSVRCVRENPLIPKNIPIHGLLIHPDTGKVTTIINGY
Briefly: stopped-flow CO2 hydrase assay. The assay is classed as biochemical. The conditions noted are these: read-out: KI^a (nM) / TvaCA1^c.
Turning to `CC1(C)O[C@@H]2[C@@H](CO[C@@]3(COS(N)(=O)=O)OC(C)(C)O[C@@H]23)O1` [TPM, topiramate], the Ki is more than 50000 nM.

As to `Cn1nc(S(N)(=O)=O)sc1=N` [compound 14, 14], the Ki was determined as 3990 nM.

As for `NS(=O)(=O)c1ccc(O)cc1` [compound 15, 15], the Ki was determined as 2030 nM.

Regarding `NS(=O)(=O)c1cc(Cl)cc(Cl)c1O` [compound 10, 10], the Ki came out at 4540 nM.

For the molecule `CCN[C@H]1CN(CCCOC)S(=O)(=O)c2sc(S(N)(=O)=O)cc21` [BRZ, brinzolamide], the Ki is more than 50000 nM.

As to `Nc1cccc(S(N)(=O)=O)c1` [compound 1, 1], the Ki was found to be 3250 nM.

Regarding `NS(=O)(=O)c1nnc(NS(=O)(=O)c2ccccc2)s1` [BZA, benzolamide], the Ki is more than 50000 nM.

Take `NS(=O)(=O)c1cccc(S(N)(=O)=O)c1` [compound 3, 3]: the Ki is 3560 nM.

With `Cc1ccc(S(N)(=O)=O)cc1` [compound 4, 4], the Ki is 3600 nM.

With `NS(=O)(=O)c1cc(Cl)c(Cl)c(S(N)(=O)=O)c1` [DCP, dichlorophenamide], the Ki was more than 50000 nM.

Regarding `NS(=O)(=O)Cc1noc2ccccc12` [ZNS, zonisamide], the Ki was more than 50000 nM.

Turning to `CC(=O)N=c1sc(S(N)(=O)=O)nn1C` [MZA, methazolamide], the Ki was determined as 3830 nM.

For `Nc1nnc(S(N)(=O)=O)s1` [compound 13, 13], the Ki turned out to be 1890 nM.

On to `Nc1nccc(Nc2ccc(S(N)(=O)=O)cc2)n1` [compound 19, 19], for which the Ki was determined as 4530 nM.

With `NS(=O)(=O)c1ccc(CCNS(=O)(=O)c2ccc([N+](=O)[O-])cc2CO)cc1` [compound 21, 21], the Ki amounted to 3450 nM.

In the case of `Nc1ccc(S(N)(=O)=O)cc1` [compound 2, 2], the Ki turned out to be 4740 nM.

In the case of `Nc1ccc(S(N)(=O)=O)cc1F` [compound 7, 7], the Ki was determined as 4280 nM.

A further assay deals with T1, TvaCA1. The assay is described as follows: biochemical. Set-up: stopped-flow CO2 hydration assay, phenol red at 557 nm, TRIS pH 8.3, 15 min preincubation, KI. The conditions noted are these: inhibitor; read-out: KI^a (nM) / TvaCA1^c / β. Here is the method:
An Applied Photophysics stopped-flow instrument was used for assaying the CA catalysed CO2 hydration activity. Phenol red (at a concentration of 0.2 mM) was used as an indicator, working at the absorbance maximum of 557 nm, with 10 − 20 mM HEPES (pH 7.5, for α-CAs) or TRIS (pH 8.3 for β-CAs) as buffers, and 20 mM NaClO4 (for maintaining constant the ionic strength), following the initial rates of the CA-catalysed CO2 hydration reaction for a period of 10–100 s. The CO2 concentrations ranged from 1.7 to 17 mM for the determination of the kinetic parameters and inhibition constants. For each inhibitor, at least six traces of the initial 5–10% of the reaction were used for determining the initial velocity. The uncatalyzed rates were determined in the same manner and subtracted from the total observed rates. Stock solutions of inhibitors (10 mM) and dilutions up to 0.01 nM were prepared in distilled-deionised water. Inhibitor and enzyme solutions of concentrations ranging between 5 and 12 nM were preincubated together for 15 min at room temperature prior to assay, in order to allow for the formation of the enzyme–inhibitor complex. The inhibition constants were obtained by non-linear least-squares methods using PRISM 3 as reported earlier, and represent the mean from at least three different determinations. TvaCA1 was a recombinant enzyme obtained in-house as described earlier. The enzyme was recombinantly produced in E. coli (OneShot® BL21 Star™ (DE3) Chemically Competent Cells, #C601003, Thermo Fisher Scientific, Finland). The enzyme was purified using Ni^2+-NTA agarose affinity chromatography resin (Macherey-Nagel GmbH Co., Germany). More detailed information concerning the recombinant protein production and its kinetic and structural characterisation can be found in our previous article. The presence of the correct protein in the isolated protein fraction was confirmed by tandem mass spectrometry (MS/MS).
`Nc1ccc(S(=O)(=O)NCc2ccc(S(N)(=O)=O)cc2)cc1` [compound 23]: the Ki was more than 50000 nM.

The same assay, now with this note: read-out: KI^a (nM) / TvaCA1^c / β.
For the molecule `Nc1ccc(S(N)(=O)=O)cc1Br` [compound 9], the Ki was more than 50000 nM.

Turning to `Cc1ccc(-c2cc(C(F)(F)F)nn2-c2ccc(S(N)(=O)=O)cc2)cc1` [CLX], the Ki was more than 50000 nM.

Regarding `Nc1ccc(S(=O)(=O)Nc2ccc(S(N)(=O)=O)cc2)cc1` [compound 22], the Ki was more than 50000 nM.

Consider `Nc1cc(Cl)c(S(N)(=O)=O)cc1S(N)(=O)=O` [compound 12], for which the Ki is more than 50000 nM.

As to `O=C1NS(=O)(=O)c2ccccc21` [SAC], the Ki is more than 50000 nM.

For the molecule `Cc1onc(-c2ccccc2)c1-c1ccc(S(N)(=O)=O)cc1` [VLX], the Ki is more than 50000 nM.

Turning to `Nc1ccc(S(N)(=O)=O)cc1Cl` [compound 8], the Ki is more than 50000 nM.

In the case of `Nc1cc(C(F)(F)F)c(S(N)(=O)=O)cc1S(N)(=O)=O` [compound 11], the Ki was more than 50000 nM.

Take `NCc1ccc(S(N)(=O)=O)cc1` [compound 5]: the Ki is more than 50000 nM.

Take `NS(=O)(=O)c1ccc(N2CCCCS2(=O)=O)cc1` [SLT]: the Ki was more than 50000 nM.

Regarding `NS(=O)(=O)c1ccc(CO)cc1` [compound 16], the Ki is more than 50000 nM.

With `NCCc1ccc(S(N)(=O)=O)cc1` [compound 6], the Ki is more than 50000 nM.

On to `NS(=O)(=O)c1ccc(C(=O)O)cc1` [compound 18], for which the Ki is more than 50000 nM.

With `NS(=O)(=O)c1ccc(CCO)cc1` [compound 17], the Ki is more than 50000 nM.

On to `NS(=O)(=O)c1ccc(S(=O)(=O)Nc2cccc3c(Cl)c[nH]c23)cc1` [IND], for which the Ki was more than 50000 nM.

For `NS(=O)(=O)c1cc2c(cc1Cl)NCNS2(=O)=O` [HCT], the Ki is more than 50000 nM.

As to `Nc1ccc(S(=O)(=O)Nc2nnc(S(N)(=O)=O)s2)cc1` [compound 20], the Ki was more than 50000 nM.
